Columns and labels:
[1] = tested on: dogs; settings: short-term administration 0.5 mg to 10 mg/kg/day; cited from earlier work
[2] = tested on: animal; settings: long term animal studies; cited from earlier work
[3] = tested on: mice; settings: dietary, up to 2 years, 63 mg/kg/day; cited from earlier work
[4] = oral; cited from earlier work
[5] = 2.5 mg, 5 mg, or 10 mg oral; cited from earlier work
[6] = tested on: male adults with AGA; settings: cited from earlier work
[7] = tested on: patients; settings: cited from earlier work
[8] = tested on: patient with androgenetic alopecia; settings: 1.25 mg QID

Structure (SMILES): Nc1cc(N2CCCCC2)nc(N)[n+]1[O-] [minoxidil]
- cardiac findings [1]: various cardiac lesions
- cardiac findings [2]: cardiac hypertrophy, cardiac dilation, and serosanguineous pericardial fluid
- incidence of hepatic nodules in males [3]: increased incidence of hepatic nodules
- absorbed from the gastrointestinal tract [4]: > 90%
- differences in systolic and diastolic blood pressure (time effects within treatments) [5]: less than 10%
- effect on blood pressure in normotensive subjects [5]: little effect on blood pressure
- adverse cardiovascular outcomes ([6]; 5 mg oral at bedtime, 24 weeks): No adverse cardiovascular outcomes
- change in mean heart rate ([6]; 5 mg oral at bedtime, 24 weeks): no overall change in mean heart rate
- laboratory variables before versus after treatment ([6]; 5 mg oral at bedtime, 24 weeks): no differences
- subjects developing tachycardia ([6]; at the follow-up visit): 1 subject
- emergence of hypertrichosis signs after starting treatment ([7]; human, in vivo): 3-6 weeks
- spontaneous reversal of hypertrichosis after cessation of therapy ([7]; human, in vivo): 1-6 months
- occurrence of hypertrichosis ([7]; treated patients): most patients
- unwanted hair growth or other adverse events [8]: No unwanted hair growth or other adverse events, including any cardiac effects
